In US12497408B2, “Tetracyclic compounds and methods for the treatment of Zika virus infection” (priority 2021, dated 2025):

Each compound was assayed on ZIKV (assay: ZIKV reporter virus-based antiviral screening on Huh7 cells). Settings: Huh7 cells infected with recombinant luciferase reporter ZIKV (MOI about 0.1), 48 hrs, luciferase signal.
Format: cell-based, Zika virus
How it was run: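 Huh7 cells in 2% FBS assay medium infected at MOI about 0.1 with Renilla or Nano luciferase ZIKV premixed with nine-point compound dilutions, 48 hrs at 37° C. Luciferase signal normalized to DMSO controls as 100%; viability optionally by CellTiter-Glo with Rlu virus.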

For COC(=O)N[C@H](C(=O)N1[C@H](c2nc(Cl)c(-c3cc4c5c(c3)OCc3cc(-c6[nH]c([C@@H]7C[C@@H]8C[C@@H]8N7C(=O)[C@@H](NC(=O)OC)C(C)C)nc6Cl)cc(c3-5)OC4)[nH]2)C[C@@H]2C[C@@H]21)C(C)C [Compound 11, dimethyl ((2S,2′S)-((1S,1′S,3S,3′S,5S,5′S)-((5,10-dihydrochromeno[5,4,3-cde]chromene-2,7-diyl)bis(4-chloro-1H-imidazole-5,2-diyl))bis(2-azabicyclo[3.1.0]hexane-3,2-diyl))bis(3-methyl-1-oxobutane-1,2-diyl))dicarbamate], the EC50 was 9.3 nM.

Same assay, conditions: Zika virus, Huh-7, 48 h, Huh7 cells infected with recombinant luciferase reporter ZIKV (MOI about 0.1), luciferase signal

Going from COC(=O)N[C@H](C(=O)N1C[C@H](F)C[C@H]1c1nc(Cl)c(-c2cc3c4c(c2)OCc2cc(-c5[nH]c([C@@H]6C[C@@H](F)CN6C(=O)[C@@H](NC(=O)OC)C(C)(C)C(F)(F)F)nc5Cl)cc(c2-4)OC3)[nH]1)C(C)(C)C(F)(F)F [Compound 55, dimethyl ((2S,2′S)-((3R,3′R,5S,5′S)-((5,10-dihydrochromeno[5,4,3-cde]chromene-2,7-diyl)bis(4-chloro-1H-imidazole-5,2-diyl))bis(3-fluoropyrrolidine-5,1-diyl))bis(4,4,4-trifluoro-3,3-dimethyl-1-oxobutane-1,2-diyl))dicarbamate] to COC(=O)N[C@H](C(=O)N1CCC[C@H]1c1nc(Cl)c(-c2cc3c4c(c2)OCc2cc(-c5[nH]c([C@@H]6CCCN6C(=O)[C@@H](NC(=O)OC)C(C)(C)C(F)(F)F)nc5Cl)cc(c2-4)OC3)[nH]1)C(C)(C)C(F)(F)F [Compound 27, dimethyl ((2S,2′S)-((2S,2′S)-((5,10-dihydrochromeno[5,4,3-cde]chromene-2,7-diyl)bis(4-chloro-1H-imidazole-5,2-diyl))bis(pyrrolidine-2,1-diyl))bis(4,4,4-trifluoro-3,3-dimethyl-1-oxobutane-1,2-diyl))dicarbamate], the EC50 falls from 4.7 nM to 2.6 nM (1.8-fold). The second is the more potent here.

Compared with COC(=O)N[C@H](C(=O)N1C[C@H](C)C[C@H]1c1nc(Cl)c(-c2cc3c4c(c2)OCc2cc(-c5[nH]c([C@@H]6C[C@@H](C)CN6C(=O)[C@@H](NC(=O)OC)C(C)C)nc5Cl)cc(c2-4)OC3)[nH]1)C(C)C [Compound 1, dimethyl ((2S,2′S)-((3R,3′R,5S,5′S)-((5,10-dihydrochromeno[5,4,3-cde]chromene-2,7-diyl)bis(4-chloro-1H-imidazole-5,2-diyl))bis(3-methylpyrrolidine-5,1-diyl))bis(3-methyl-1-oxobutane-1,2-diyl))dicarbamate], CC[C@H](C)[C@H](NC(=O)OC)C(=O)N1C[C@@H](C)C[C@H]1c1nc(Cl)c(-c2cc3c4c(c2)OCc2cc(-c5[nH]c([C@@H]6C[C@H](C)CN6C(=O)[C@@H](NC(=O)OC)[C@@H](C)CC)nc5Cl)cc(c2-4)OC3)[nH]1 [Compound 68, dimethyl ((2S,2′S,3S,3′S)-((3S,3′S,5S,5′S)-((5,10-dihydrochromeno[5,4,3-cde]chromene-2,7-diyl)bis(4-chloro-1H-imidazole-5,2-diyl))bis(3-methylpyrrolidine-5,1-diyl))bis(3-methyl-1-oxopentane-1,2-diyl))dicarbamate] is 2.4-fold higher in EC50: 4.2 nM for the first, 9.9 nM for the second. The first is the more potent here.

First: CC[C@H](C)[C@H](NC(=O)OC)C(=O)N1C[C@@H](OC)C[C@H]1c1nc(Cl)c(-c2cc3c4c(c2)OCc2cc(-c5[nH]c([C@@H]6C[C@H](OC)CN6C(=O)[C@@H](NC(=O)OC)[C@@H](C)CC)nc5Cl)cc(c2-4)OC3)[nH]1 [Compound 5, dimethyl ((2S,2′S,3S,3′S)-((3S,3′S,5S,5′S)-((5,10-dihydrochromeno[5,4,3-cde]chromene-2,7-diyl)bis(4-chloro-1H-imidazole-5,2-diyl))bis(3-methoxypyrrolidine-5,1-diyl))bis(3-methyl-1-oxopentane-1,2-diyl))dicarbamate]
Second: COC(=O)N[C@H](C(=O)N1C[C@@H](F)C[C@H]1c1nc(Cl)c(-c2cc3c4c(c2)OCc2cc(-c5[nH]c([C@@H]6C[C@H](F)CN6C(=O)[C@@H](NC(=O)OC)C(C)C)nc5Cl)cc(c2-4)OC3)[nH]1)C(C)C [Compound 50, dimethyl ((2S,2′S)-((3S,3′S,5S,5′S)-((5,10-dihydrochromeno[5,4,3-cde]chromene-2,7-diyl)bis(4-chloro-1H-imidazole-5,2-diyl))bis(3-fluoropyrrolidine-5,1-diyl))bis(3-methyl-1-oxobutane-1,2-diyl))dicarbamate]
The EC50 of the first is 19-fold lower: 12.4 nM for the first, 240 nM for the second. The first is the more potent here.

First: CC(C)[C@H](NC(=O)C1CC1)C(=O)N1CCC[C@H]1c1nc(Cl)c(-c2cc3c4c(c2)OCc2cc(-c5[nH]c([C@@H]6CCCN6C(=O)[C@@H](NC(=O)C6CC6)C(C)C)nc5Cl)cc(c2-4)OC3)[nH]1 [Compound 25, N,N′-((2S,2′S)-((2S,2′S)-((5,10-dihydrochromeno[5,4,3-cde]chromene-2,7-diyl)bis(4-chloro-1H-imidazole-5,2-diyl))bis(pyrrolidine-2,1-diyl))bis(3-methyl-1-oxobutane-1,2-diyl))dicyclopropanecarboxamide]
Second: CCCc1nc([C@@H]2CCCN2C(=O)[C@@H](NC(=O)OC)C(C)C)[nH]c1-c1cc2c3c(c1)OCc1cc(-c4[nH]c([C@@H]5CCCN5C(=O)[C@@H](NC(=O)OC)C(C)C)nc4CCC)cc(c1-3)OC2 [Compound 79, dimethyl ((2S,2′S)-((2S,2′S)-((5,10-dihydrochromeno[5,4,3-cde]chromene-2,7-diyl)bis(4-propyl-1H-imidazole-5,2-diyl))bis(pyrrolidine-2,1-diyl))bis(3-methyl-1-oxobutane-1,2-diyl))dicarbamate]
The EC50 of the first is 9.1-fold lower: 21.9 nM for the first, 200 nM for the second.

Compared with COC(=O)N[C@H](C(=O)N[C@H](c1nc(Cl)c(-c2cc3c4c(c2)OCc2cc(-c5[nH]c([C@@H](NC(=O)[C@@H](NC(=O)OC)C(C)C)C(C)(C)C)nc5Cl)cc(c2-4)OC3)[nH]1)C(C)(C)C)C(C)C [Compound 20, dimethyl ((2S,2′S)-(((1S,1′S)-((5,10-dihydrochromeno[5,4,3-cde]chromene-2,7-diyl)bis(4-chloro-1H-imidazole-5,2-diyl))bis(2,2-dimethylpropane-1,1-diyl))bis(azanediyl))bis(3-methyl-1-oxobutane-1,2-diyl))dicarbamate], COC(=O)N[C@H](C(=O)N1CCC[C@@]1(C)c1nc(Cl)c(-c2cc3c4c(c2)OCc2cc(-c5[nH]c([C@]6(C)CCCN6C(=O)[C@@H](NC(=O)OC)C(C)C)nc5Cl)cc(c2-4)OC3)[nH]1)C(C)C [Compound 64, dimethyl ((2S,2′S)-((2S,2′S)-((5,10-dihydrochromeno[5,4,3-cde]chromene-2,7-diyl)bis(4-chloro-1H-imidazole-5,2-diyl))bis(2-methylpyrrolidine-2,1-diyl))bis(3-methyl-1-oxobutane-1,2-diyl))dicarbamate] is lower in EC50: greater than 368 nM for the first, 234 nM for the second. The second is the more potent here.

Compared with COC(=O)N[C@H](C(=O)N1CC2(CC2)C[C@H]1c1nc(Cl)c(-c2cc3c4c(c2)OCc2cc(-c5[nH]c([C@@H]6CC7(CC7)CN6C(=O)[C@@H](NC(=O)OC)C(C)C)nc5C(C)C)cc(c2-4)OC3)[nH]1)C(C)C [Compound 15, methyl ((S)-1-((S)-6-(5-(7-(4-chloro-2-((S)-5-((methoxycarbonyl)-L-valyl)-5-azaspiro[2.4]heptan-6-yl)-1H-imidazol-5-yl)-5,10-dihydrochromeno[5,4,3-cde]chromen-2-yl)-4-isopropyl-1H-imidazol-2-yl)-5-azaspiro[2.4]heptan-5-yl)-3-methyl-1-oxobutan-2-yl)carbamate], COC(=O)N[C@H](C(=O)N1CCC[C@H]1c1nc(C(C)C)c(-c2cc3c4c(c2)OCc2cc(-c5[nH]c([C@@H]6CCCN6C(=O)[C@@H](NC(=O)OC)C(C)C)nc5C(C)C)cc(c2-4)OC3)[nH]1)C(C)C [Compound 19, dimethyl ((2S,2′S)-((2S,2′S)-((5,10-dihydrochromeno[5,4,3-cde]chromene-2,7-diyl)bis(4-isopropyl-1H-imidazole-5,2-diyl))bis(pyrrolidine-2,1-diyl))bis(3-methyl-1-oxobutane-1,2-diyl))dicarbamate] is 4.3-fold higher in EC50: 3.7 nM for the first, 15.8 nM for the second. The first is the more potent here.

Compared with COC(=O)N[C@H](C(=O)N1CCC[C@H]1c1nc(Cl)c(-c2cc3c4c(c2)OCc2cc(-c5[nH]c([C@@H]6CCCN6C(=O)[C@@H](NC(=O)OC)C(C)(C)C)nc5Cl)cc(c2-4)OC3)[nH]1)C(C)(C)C [Compound 26, dimethyl ((2S,2′S)-((2S,2′S)-((5,10-dihydrochromeno[5,4,3-cde]chromene-2,7-diyl)bis(4-chloro-1H-imidazole-5,2-diyl))bis(pyrrolidine-2,1-diyl))bis(3,3-dimethyl-1-oxobutane-1,2-diyl))dicarbamate], COC(=O)N[C@H](C(=O)N1[C@H](c2nc(Cl)c(-c3cc4c5c(c3)OCc3cc(-c6[nH]c([C@@H]7C[C@@H]8CCCC[C@@H]8N7C(=O)[C@@H](NC(=O)OC)C(C)(C)C(F)(F)F)nc6Cl)cc(c3-5)OC4)[nH]2)C[C@@H]2CCCC[C@@H]21)C(C)(C)C(F)(F)F [Compound 38, dimethyl ((2S,2′S)-((2S,2′S,3aS,3a′S,7aS,7a′S)-((5,10-dihydrochromeno[5,4,3-cde]chromene-2,7-diyl)bis(4-chloro-1H-imidazole-5,2-diyl))bis(octahydro-1H-indole-2,1-diyl))bis(4,4,4-trifluoro-3,3-dimethyl-1-oxobutane-1,2-diyl))dicarbamate] is 16-fold higher in EC50: 1.6 nM for the first, 25.6 nM for the second.

COC(=O)N[C@H](C(=O)N1[C@@H]2C[C@@H]2C[C@H]1c1nc(Cl)c(-c2cc3c4c(c2)OCc2cc(-c5[nH]c([C@@H]6C[C@H]7C[C@H]7N6C(=O)[C@@H](NC(=O)OC)C(C)C)nc5Cl)cc(c2-4)OC3)[nH]1)C(C)C [Compound 46, dimethyl ((2S,2′S)-((1R,1′R,3S,3′S,5R,5′R)-((5,10-dihydrochromeno[5,4,3-cde]chromene-2,7-diyl)bis(4-chloro-1H-imidazole-5,2-diyl))bis(2-azabicyclo[3.1.0]hexane-3,2-diyl))bis(3-methyl-1-oxobutane-1,2-diyl))dicarbamate] was tested, and the EC50 was 5 nM.
